Common to all, as to type: cell-based
Assay [1] concerns the target T1, BromoTag-Brd2 (Homo sapiens, UniProt O60885+P40337, L387A).
T1 construct: comprising residues 368-440 of human Brd4; Brd2 (endogenous protein, fusion partner in the same polypeptide); eGFP-P2A (upstream marker in the knock-in cassette) (N, cleaved yes); expressed in transfected cells; host or cells: HEK293, heterozygous CRISPR knock-in at the endogenous BRD2 locus
Kind of assay: Dose-response degradation assay (western blot, 6 h) in heterozygous BromoTag-Brd2 HEK293 cells. As to the method:
Dose-response Degradation Assays. All dose-response degradation assays were performed on the genotype verified heterozygous BromoTag-Brd2 HEK293 cell line. Heterozygous BromoTag-Brd2 HEK293 cells were plated at a density of 5×10^5 cells per well of a six healthy plate a day before initiation of the titration experiment. PROTAC compounds were dissolved in DMSO at a concentration of 10 mM, from these stock concentrations, PROTAC compounds were diluted to appropriate concentrations using DMSO in the range of 10 μM-1 nM. […] Control compounds such as MZ1, cis-MZ1 were similarly dissolved in DMSO to the appropriate concentration. […] Cells were washed twice with PBS before being harvested.
Western Blotting. […] The membranes were blocked for 1 h prior to incubation with the primary antibodies using 5% Milk TBST. […] Following overnight incubation with the primary antibodies at 4° C., the membranes were incubated with secondary antibodies (Anti-rabbit, Abcam AB216773, 1:5000 or anti-mouse, Abcam AB216774, 1:5000) and hFAB™ Rhodamine Anti-Tubulin Antibody (Biorad, 12004165, 1:10000) for one h and then imaged with a Bio-Rad imager (LI-COR Biosciences). All western blots were analysed for band intensities using Image Lab from Bio-Rad (LI-COR, Biosciences). The data extracted from these blots were then plotted and analysed using Prism (v. 8.2.0, GraphPad).

Assay [2] concerns the target T1, BromoTag-Brd2. Kind of assay: Recovery (washout) assay. As to the method:
Recovery Assay. A recovery assay was performed using 200 nM AGB1 over a 72 h period. This was performed in the genotype verified heterozygous BromoTag-Brd2 HEK293 cell line. Heterozygous BromoTag-Brd2 HEK293 cells were plated at a density of 5×10^5 cells per well of a six-well plate a day before initiating the recovery assay. On the experiment day, cells were washed with PBS before fresh DMEM was applied to contain either DMSO or AGB1 200 nM. During treatment, cells were kept at 37° C., 5% CO2, and 95% humidity. After three hours, the recovery and vehicle control condition cells were rewashed with PBS before fresh DMEM was applied absent 200 nM AGB1 or DMSO. As for the positive control condition, they were left with 200 nM AGB1 for the remainder of the treatment time.
Western Blotting. All cells were harvested on ice with RIPA lysis, and extraction buffer (ThermoFisher Scientific, 89901) supplemented with protease inhibitor cocktail (Merck, 11697498001) and Benzonase® Nuclease (Sigma, E1014) before being store at −20° C. prior to use. Total protein quantity was determined using the BCA protein assay (#23225, Pierce, Rockford, Illinois). Protein concentration was determined using the BCA assay (ThermoFisher Scientific, 23225). Samples were then prepared and loaded onto NuPAGE™ 4-12% Bis-Tris Midi gels (ThermoFisher Scientific, WG1403A), followed by the transfer of the proteins onto nitrocellulose membranes (EMD Millipore). The membranes were blocked for 1 h prior to incubation with the primary antibodies using 5% Milk TBST. Membranes were probed for Brd2 (Abcam, Ab139690, 1:1000), Brd3 (Abcam, Ab50818, 1:4000), Brd4 (Abcam, Ab128874, 1:1000) or our polyclonal Brd4^BD2 L387A antibody. […] All western blots were analysed for band intensities using Image Lab from Bio-Rad (LI-COR, Biosciences). The data extracted from these blots were then plotted and analysed using Prism (v. 8.2.0, GraphPad).

For assay [3], the target named is T2, MCM4 (P33991), BromoTag N-term (Homo sapiens, UniProt O60885+P40337, L387A).
T2 construct: comprising residues 368-440 of human Brd4; MCM4 (endogenous protein, fusion partner in the same polypeptide); expressed in transfected cells
Nature of the assay: Degradation of BromoTag'ed MCM4 by AGB1. The source says:
(§1) Degradation of a variety of target proteins. […] We performed CRISPR knock-in of the BromoTag, as described, into the endogenous loci of five additional proteins. […] The target proteins of Table 6 are all different, are all known to have different cellular roles and function, intracellular expression, and distinctive turnover rates within cells.

Assay [4] has as its target T3, VPS34/PK3C3 (Q8NEB9), BromoTag N-term (Homo sapiens, UniProt O60885+P40337, L387A).
T3 construct: comprising residues 368-440 of human Brd4; VPS34/PK3C3 (endogenous protein, fusion partner in the same polypeptide); expressed in transfected cells
Nature of the assay: Degradation of BromoTag'ed VPS34/PK3C3 by AGB1.
From the text: as §1

Assay [5] has as its system BromoTag-protein conjugates. Kind of assay: Degradation of a variety of BromoTag'ed target proteins (summary). The note with it: treatment window of 100 nM-1 nM.
From the text: as §1

SMILES strings stand for the structures. Several values for one entry are separate records, joined by “and”; a condition that tells them apart may be missing. Equal entries are not always repeated. Some results are limits rather than exact numbers.

T1 sequence (P40337 whole entry, other chains not shown, the tested form may be a part): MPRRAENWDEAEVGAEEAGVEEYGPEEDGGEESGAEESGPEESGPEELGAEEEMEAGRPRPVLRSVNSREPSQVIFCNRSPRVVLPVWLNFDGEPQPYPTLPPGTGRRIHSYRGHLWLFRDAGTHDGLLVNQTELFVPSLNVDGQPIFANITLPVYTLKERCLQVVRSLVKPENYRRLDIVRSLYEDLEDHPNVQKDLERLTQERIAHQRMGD
T2 sequence (P40337 whole entry, other chains not shown, the tested form may be a part): as above
T3 sequence (P40337 whole entry, other chains not shown, the tested form may be a part): as above

For the compound `CC[C@@H](C(=O)OCCOCCOCCOCC(=O)N[C@H](C(=O)N1C[C@H](O)C[C@H]1C(=O)NCc1ccc(-c2scnc2C)cc1)C(C)(C)C)[C@@H]1N=C(c2ccc(Cl)cc2)c2c(sc(C)c2C)-n2c(C)nnc21` (single isomer, unassigned) [AGB1 (46)], in assay [1] (6 h, range over the two antibodies, listed as 46), the half-maximal degradation concentration (DC50) was 13 to 15 nM and < 15 nM. For the same compound, the pDC50 was found to be 7.8 ± 0.2 in assay [1] (Ab: Brd4^BD2 L387A, single stereoisomers, 8-point 10 μM-1 nM, 6 h, mean (±S.E.) of two repeats); 7.9 ± 0.1 in assay [1] (Ab: BromoTag-Brd2, single stereoisomers, 8-point 10 μM-1 nM, 6 h, mean (±S.E.) of two repeats); 7.8 in assay [1] (BromoTag'ed BRD2 (P25440), N-term tag, Table 6); 8.1 in assay [3] (BromoTag'ed MCM4, N-term tag); 8.0 in assay [4] (BromoTag'ed VPS34/PK3C3, N-term tag). In addition, the Dmax is 99% in assay [1] (HEK293, Ab: Brd4^BD2 L387A, single stereoisomers, 6 h); over 99% in assay [3]; over 99% in assay [4]. The “time after washout at which BromoTag-Brd2 protein levels recover” value in assay [2] (200 nM for 3 h, then washout) came to 24 h. For the same compound, the “BromoTag-Brd2 level after 3 h treatment” value in assay [2] (200 nM, 3 h) was “complete depletion”. Further, the “on-target degradation without washout” value in assay [2] (200 nM, no washout) is “complete and durable on-target degradation for up to 72 h”. Besides, the “loss of total target protein” value in assay [5] is listed as “greater than 95%”.

The record behind these values is US20250130239A1, “PROTEIN DEGRADER” (University of Dundee, priority 2021, published 2025).
